Here are results for 21 compounds from patent US20170334934A1, “Macrocyclic picolinamides as fungicides” (DOW AGROSCIENCES LLC, priority 2014, published 2017).

For assay [1], the system named is Mycosphaerella graminicola; Anamorph: Zymoseptoria tritici. As to the kind of experiment: Fungicidal activity: Leaf Blotch of Wheat (SEPTTR), wheat seedlings. The class given is in vivo. Conditions: for pest or weed control at 121.5 g/ha: Low Volume (121.5 g/H). The method, then: Example A: Evaluation of Fungicidal Activity: Leaf Blotch of Wheat (Mycosphaerella graminicola; Anamorph: Zymoseptoria tritici; Bayer Code […]) Technical grades of materials were dissolved in acetone, which were then mixed with nine volumes of water containing 110 ppm Triton X-100. The fungicide solutions were applied onto wheat seedlings using an automated booth sprayer to run-off. All sprayed plants were allowed to air dry prior to further handling. All fungicides were evaluated using the aforementioned method for their activity vs. all target diseases, unless stated otherwise. Wheat leaf blotch and brown rust activity were also evaluated using track spray applications, in which case the fungicides were formulated as EC formulations, containing 0.1% Trycol 5941 in the spray solutions. Wheat plants (variety Yuma) were grown from seed in a greenhouse in 50% mineral soil/50% soil-less Metro mix until the first leaf was fully emerged, with 7-10 seedlings per pot. These plants were inoculated with an aqueous spore suspension of Zymoseptoria tritici either prior to or after fungicide treatments. After inoculation the plants were kept in 100% relative humidity (one day in a dark dew chamber followed by two to three days in a lighted dew chamber at 20° C.) to permit spores to germinate and infect the leaf. The plants were then transferred to a greenhouse set at 20° C. for disease to develop. When disease symptoms were fully expressed on the 1st leaves of untreated plants, infection levels were assessed on a scale of 0 to 100 percent disease severity. Percent disease control was calculated using the ratio of disease severity on treated plants relative to untreated plants.

Assay [2] deals with Puccinia triticina. The assay is described as follows: Fungicidal activity: Wheat Brown Rust (PUCCRT), wheat seedlings. The class given is in vivo. The following applies: for pest or weed control at 121.5 g/ha: Low Volume (121.5 g/H); for pest or weed control at 100 µg/mL: High Volume (100 ppm). As for the experimental part: Technical grades of materials were dissolved in acetone, which were then mixed with nine volumes of water containing 110 ppm Triton X-100. The fungicide solutions were applied onto wheat seedlings using an automated booth sprayer to run-off. All sprayed plants were allowed to air dry prior to further handling. All fungicides were evaluated using the aforementioned method for their activity vs. all target diseases, unless stated otherwise. Wheat leaf blotch and brown rust activity were also evaluated using track spray applications, in which case the fungicides were formulated as EC formulations, containing 0.1% Trycol 5941 in the spray solutions. Wheat plants (variety Yuma) were grown from seed in a greenhouse in 50% mineral soil/50% soil-less Metro mix until the first leaf was fully emerged, with 7-10 seedlings per pot. These plants were inoculated with an aqueous spore suspension of Zymoseptoria tritici either prior to or after fungicide treatments. After inoculation the plants were kept in 100% relative humidity (one day in a dark dew chamber followed by two to three days in a lighted dew chamber at 20° C.) to permit spores to germinate and infect the leaf. The plants were then transferred to a greenhouse set at 20° C. for disease to develop. When disease symptoms were fully expressed on the 1st leaves of untreated plants, infection levels were assessed on a scale of 0 to 100 percent disease severity. Percent disease control was calculated using the ratio of disease severity on treated plants relative to untreated plants. Example B: Evaluation of Fungicidal Activity: Wheat Brown Rust (Puccinia triticina; Synonym: Puccinia recondita f. sp. tritici; Bayer Code PUCCRT) Wheat plants (variety Yuma) were grown from seed in a greenhouse in 50% mineral soil/50% soil-less Metro mix until the first leaf was fully emerged, with 7-10 seedlings per pot. These plants were inoculated with an aqueous spore suspension of Puccinia triticina either prior to or after fungicide treatments. After inoculation the plants were kept in a dark dew room at 22° C. with 100% relative humidity overnight to permit spores to germinate and infect the leaf. The plants were then transferred to a greenhouse set at 24° C. for disease to develop. Fungicide formulation, application and disease assessment followed the procedures as described in the Example A.

[3] abbreviates: 24 h, 1 Day Protectant, wheat, read-out: SEPTTR disease control rating, 1DP.
Setting [4] is: 72 h, 3 Day Curative, wheat, read-out: SEPTTR disease control rating, 3DC.
Setting [5] is: 24 h, 1 Day Protectant, read-out: PUCCRT disease control rating, 1DP.
Where [6] appears, read: 72 h, 3 Day Curative, read-out: PUCCRT disease control rating, 3DC.
The mark [7] stands for this setting: 24 h, High Volume (100 ppm), 1 Day Protectant, wheat, read-out: SEPTTR disease control rating, 1DP.
The mark [8] stands for this setting: 72 h, High Volume (100 ppm), 3 Day Curative, wheat, read-out: SEPTTR disease control rating, 3DC.

Molecules are shown by their SMILES. Like-named read-outs stand apart in the source and are kept apart here.

For the compound `CC[C@H]1OCC[C@H](NC(=O)c2nccc(OC)c2OCOC(C)=O)C(=O)O[C@@H](C)[C@@H]1Oc1ccccc1` [Compound 90], the pest or weed control at 121.5 g/ha in assay [1] (setting [3]), in assay [1] (setting [4]), in assay [2] (setting [5]) and in assay [2] (setting [6]) was above 70% in each case.

Turning to `COc1ccnc(C(=O)N[C@H]2CCO[C@H](Cc3ccccc3)[C@@H](OCC(C)C)[C@H](C)OC2=O)c1OCOC(C)=O` [Compound 72], the pest or weed control at 121.5 g/ha in assay [1] (setting [3]), in assay [1] (setting [4]), in assay [2] (setting [5]) and in assay [2] (setting [6]) was above 70% each time.

For `COc1ccnc(C(=O)N[C@H]2CCOC[C@@H](OCC(C)C)[C@H](C)OC2=O)c1OCOC(C)=O` [Compound 97], the pest or weed control at 121.5 g/ha in assay [1] (setting [3]), in assay [1] (setting [4]), in assay [2] (setting [5]) and in assay [2] (setting [6]) was above 70% throughout.

For `COc1ccnc(C(=O)N[C@H]2CCO[C@H](Cc3ccc(F)cc3)[C@@H](Oc3ccccc3)[C@H](C)OC2=O)c1OCOC(C)=O` [Compound 73], the pest or weed control at 121.5 g/ha in assay [1] (setting [3]), in assay [1] (setting [4]), in assay [2] (setting [5]) and in assay [2] (setting [6]) was above 70% throughout.

As for `CC[C@H]1OCC[C@H](NC(=O)c2nccc(OC)c2O)C(=O)O[C@@H](C)[C@@H]1OCC(C)C` [Compound 62], the pest or weed control at 100 µg/mL in assay [1] (setting [7]) was below 70%; in assay [1] (setting [8]) it was above 70%; in assay [2] (setting [5]), above 70%; in assay [2] (setting [6]), above 70%.

As to `C=CCO[C@H]1[C@H](C)OC(=O)[C@@H](NC(=O)c2nccc(OC)c2OCOC(C)=O)CCO[C@@H]1Cc1ccc(F)cc1` [Compound 78], the pest or weed control at 121.5 g/ha in assay [1] (setting [3]) is below 70%; in assay [1] (setting [4]) it was below 70%; in assay [2] (setting [5]) it was above 70%; in assay [2] (setting [6]), above 70%.

For `CC[C@H]1OCC[C@H](NC(=O)c2nccc(OC)c2O)C(=O)O[C@@H](C)[C@@H]1Oc1ccccc1` [Compound 63], the pest or weed control at 100 µg/mL in assay [1] (setting [7]), in assay [1] (setting [8]), in assay [2] (setting [5]) and in assay [2] (setting [6]) was above 70% throughout.

On to `COc1ccnc(C(=O)N[C@H]2CCOC[C@@H](Oc3ccccc3)[C@H](C)OC2=O)c1OCOC(C)=O` [Compound 99], for which the pest or weed control at 121.5 g/ha in assay [1] (setting [3]) was below 70%; in assay [1] (setting [4]), below 70%; in assay [2] (setting [5]), above 70%; in assay [2] (setting [6]), above 70%.

`COc1ccnc(C(=O)N[C@H]2CCO[C@H](Cc3ccc(F)cc3)[C@@H](OCC(C)C)[C@H](C)OC2=O)c1O` [Compound 53]: the pest or weed control at 100 µg/mL in assay [1] (setting [7]), in assay [1] (setting [8]), in assay [2] (setting [5]) and in assay [2] (setting [6]) was above 70% each time.

`CCCO[C@H]1[C@H](C)OC(=O)[C@@H](NC(=O)c2nccc(OC)c2O)CCO[C@@H]1Cc1ccc(F)cc1` [Compound 56, N-((2R,3S,4S,7S)-2-(4-fluorobenzyl)-4-methyl-6-oxo-3-propoxy-1,5-dioxonan-7-yl)-3-hydroxy-4-methoxypicolinamide]: the pest or weed control at 100 µg/mL is above 70% in assay [1] (24 h, read-out: SEPTTR disease control rating, 1DP); above 70% in assay [1] (72 h, read-out: SEPTTR disease control rating, 3DC); above 70% in assay [2] (setting [5]); above 70% in assay [2] (setting [6]).

Consider `COc1ccnc(C(=O)N[C@H]2CCOC[C@@H](Oc3ccccc3)[C@H](C)OC2=O)c1OC(C)=O` [Compound 100], for which the pest or weed control at 121.5 g/ha in assay [1] (setting [3]) was below 70%; in assay [1] (setting [4]) it was above 70%; in assay [2] (setting [5]), above 70%; in assay [2] (setting [6]), above 70%.

Consider `COc1ccnc(C(=O)N[C@H]2CCOC[C@@H](Oc3ccccc3)[C@H](C)OC2=O)c1O` [Compound 69], for which the pest or weed control at 100 µg/mL in assay [1] (setting [7]), in assay [1] (setting [8]), in assay [2] (setting [5]) and in assay [2] (setting [6]) was above 70% in each case.

`COc1ccc(C[C@H]2OCC[C@H](NC(=O)c3nccc(OC)c3O)C(=O)O[C@@H](C)[C@@H]2OCC2CC2)cc1` [Compound 59]: the pest or weed control at 100 µg/mL is below 70% in assay [1] (setting [7]), above 70% in assay [1] (setting [8]), above 70% in assay [2] (setting [5]) and above 70% in assay [2] (setting [6]).

In the case of `COc1ccnc(C(=O)N[C@H]2CCOC[C@@H](OCCCC(F)(F)F)[C@H](C)OC2=O)c1O` [Compound 68], the pest or weed control at 100 µg/mL in assay [1] (setting [7]) was below 70%; in assay [1] (setting [8]), below 70%; in assay [2] (setting [5]), above 70%; in assay [2] (setting [6]), above 70%.

Regarding `COc1ccc(C[C@H]2OCC[C@H](NC(=O)c3nccc(OC)c3O)C(=O)O[C@@H](C)[C@@H]2Oc2ccccc2)cc1` [Compound 60], the pest or weed control at 100 µg/mL in assay [1] (setting [7]), in assay [1] (setting [8]), in assay [2] (setting [5]) and in assay [2] (setting [6]) was above 70% each time.

On to `COc1ccnc(C(=O)N[C@H]2CCO[C@H](Cc3ccc(F)cc3)[C@@H](OC(=O)C(C)C)[C@H](C)OC2=O)c1OC(C)=O` [Compound 76], for which the pest or weed control at 121.5 g/ha in assay [1] (setting [3]), in assay [1] (setting [4]), in assay [2] (setting [5]) and in assay [2] (setting [6]) was above 70% in each case.

With `COc1ccnc(C(=O)N[C@H]2CCO[C@H](Cc3ccccc3)[C@@H](Oc3ccccc3)[C@H](C)OC2=O)c1OCOC(C)=O` [Compound 82], the pest or weed control at 121.5 g/ha in assay [1] (setting [3]), in assay [1] (setting [4]), in assay [2] (setting [5]) and in assay [2] (setting [6]) was above 70% throughout.

With `CC[C@H]1OCC[C@H](NC(=O)c2nccc(OC)c2OCOC(C)=O)C(=O)O[C@@H](C)[C@@H]1Oc1ccc(F)cc1` [Compound 91], the pest or weed control at 121.5 g/ha in assay [1] (setting [3]), in assay [1] (setting [4]), in assay [2] (setting [5]) and in assay [2] (setting [6]) was above 70% throughout.

For the compound `COc1ccnc(C(=O)N[C@H]2CCO[C@H](Cc3ccccc3)[C@@H](Oc3ccccc3)[C@H](C)OC2=O)c1O` [Compound 57], the pest or weed control at 100 µg/mL in assay [1] (setting [7]), in assay [1] (setting [8]), in assay [2] (setting [5]) and in assay [2] (setting [6]) was above 70% in each case.

For `COc1ccc(C[C@H]2OCC[C@H](NC(=O)c3nccc(OC)c3OCOC(C)=O)C(=O)O[C@@H](C)[C@@H]2OCC2CC2)cc1` [Compound 86], the pest or weed control at 121.5 g/ha in assay [1] (setting [3]) was above 70%; in assay [1] (setting [4]), below 70%; in assay [2] (setting [5]), above 70%; in assay [2] (setting [6]), above 70%.

As to `COc1ccnc(C(=O)N[C@H]2CCO[C@H](Cc3ccc(F)cc3)[C@@H](Oc3ccccc3)[C@H](C)OC2=O)c1O` [Compound 52], the pest or weed control at 100 µg/mL in assay [1] (setting [7]), in assay [1] (setting [8]), in assay [2] (setting [5]) and in assay [2] (setting [6]) was above 70% throughout.
